Reference: paper PMC9954146, “Anti-Leukaemic Activity of Rilpivirine Is Mediated by Aurora A Kinase Inhibition” (Cancers, 2023)
Read-outs that look alike come from different tables or passages of the source.

Columns and labels:
HL-60 cells [1] = experiment: Colony formation assay; assay type: cell-based, human; details: 2.5, 5, or 10 µM, 10 days
Protocol: (§1) For colony formation assay, 2 × 10^3 cells/well (in 6-well plates) were treated for 10 days with rilpivirine (2.5, 5, or 10 µM) or DMSO (0.1%) and incubated with 1.5 mL of cytokine-free H4230 medium ([…] Technologies, Inc., Vancouver, BC, Canada). After the incubation period, cells were stained with 300 µL/well of 3-(4,5-dimethylthiazol-2-yl)-2,5-diphenyltetrazolium bromide solution (0.5 mg/mL in PBS) (Sigma-Aldrich, St Louis, MO, USA) and incubated for 1 h. Colonies were then counted on an inverted microscope.

NB4 cells = experiment: Colony formation assay; assay type: cell-based, human; details: 2.5, 5, or 10 µM, 10 days
Protocol: as §1

[2] = test system: caspase 3/7 in HL-60, NB4, K-562, and U-937 cells; experiment: Caspase-3/7 activity assay; assay type: cell-based, human; details: 10 µM, 48 h, all cell lines
Protocol: Caspase-3/7 activity was measured after incubation of the cells with the test compounds for a specified time point using an Apo-ONE homogeneous caspase-3/7 kit (Promega, Madison, WI, USA) according to the manufacturer’s instructions. The signal was recorded by the EnVision multi-label plate reader (PerkinElmer, Beaconsfield, UK).

SAPK2a(h) = molecular target: T1, SAPK2a(h) (Homo sapiens, UniProt Q16539); experiment: Kinase panel; assay type: biochemical; details: read-out: % Residual Activity
T1 construct: purchased Eurofins (KinaseProfiler)
How it was run: (§2)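 Radiometric kinase assay, ATP at Km for each enzyme; IC50 → Ki via Cheng–Prusoff. Part of a kinome-wide selectivity screen of rilpivirine.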

CK1δ(h) = molecular target: T2, CK1δ(h) (Homo sapiens, UniProt P48730); experiment: Kinase panel; assay type: biochemical; details: read-out: % Residual Activity
T2 construct: purchased Eurofins (KinaseProfiler)
How it was run: as §2

SRPK1(h) = molecular target: T3, SRPK1(h) (Homo sapiens, UniProt Q96SB4); experiment: Kinase panel; assay type: biochemical; details: read-out: % Residual Activity
T3 construct: purchased Eurofins (KinaseProfiler)
How it was run: as §2

MKK4(m) = molecular target: T4, MKK4(m) (Mus musculus, UniProt P47809); experiment: Kinase panel; assay type: biochemical; details: read-out: % Residual Activity
T4 construct: purchased Eurofins (KinaseProfiler)
How it was run: as §2

PKBβ(h) = molecular target: T5, PKBβ(h) (Homo sapiens, UniProt P31751); experiment: Kinase panel; assay type: biochemical; details: read-out: % Residual Activity
T5 construct: purchased Eurofins (KinaseProfiler)
How it was run: as §2

FGFR2(h) = molecular target: T6, FGFR2(h) (Homo sapiens, UniProt P21802); experiment: Kinase panel; assay type: biochemical; details: read-out: % Residual Activity
T6 construct: purchased Eurofins (KinaseProfiler)
How it was run: as §2

Pim-3(h) = molecular target: T7, Pim-3(h) (Homo sapiens, UniProt Q86V86); experiment: Kinase panel; assay type: biochemical; details: read-out: % Residual Activity
T7 construct: purchased Eurofins (KinaseProfiler)
How it was run: as §2

GRK1(h) = molecular target: T8, GRK1(h) (Homo sapiens, UniProt Q15835); experiment: Kinase panel; assay type: biochemical; details: read-out: % Residual Activity
T8 construct: purchased Eurofins (KinaseProfiler)
How it was run: as §2

DAPK1(h) = molecular target: T9, DAPK1(h) (Homo sapiens, UniProt P53355); experiment: Kinase panel; assay type: biochemical; details: read-out: % Residual Activity
T9 construct: purchased Eurofins (KinaseProfiler)
How it was run: as §2

ASK1(h) = molecular target: T10, ASK1(h) (Homo sapiens, UniProt Q99683); experiment: Kinase panel; assay type: biochemical; details: read-out: % Residual Activity
T10 construct: purchased Eurofins (KinaseProfiler)
How it was run: as §2

TSSK3(h) = molecular target: T11, TSSK3(h) (Homo sapiens, UniProt Q96PN8); experiment: Kinase panel; assay type: biochemical; details: read-out: % Residual Activity
T11 construct: purchased Eurofins (KinaseProfiler)
How it was run: as §2

Flt4(h) = molecular target: T12, Flt4(h) (Homo sapiens, UniProt P35916); experiment: Kinase panel; assay type: biochemical; details: read-out: % Residual Activity
T12 construct: purchased Eurofins (KinaseProfiler)
How it was run: as §2

EGFR(T790M,L858R)(h) = molecular target: T13, EGFR(T790M,L858R)(h) (Homo sapiens, UniProt P00533, L858R/T790M); experiment: Kinase panel; assay type: biochemical; details: read-out: % Residual Activity
T13 construct: purchased Eurofins (KinaseProfiler)
How it was run: as §2

ARK5(h) = molecular target: T14, ARK5(h) (Homo sapiens, UniProt O60285); experiment: Kinase panel; assay type: biochemical; details: read-out: % Residual Activity
T14 construct: purchased Eurofins (KinaseProfiler)
How it was run: as §2

HL-60 cells [3] = experiment: Resazurin cell viability assay; assay type: cell-based; details: Homo sapiens, read-out: GI50
Protocol: Cell viability was determined by a resazurin-based assay as described previously. […] At the end of the treatment period, 20 µL of resazurin (0.1 mg/mL in PBS) was added per well and incubated for further 4 h.

T10 sequence (Q99683 whole entry): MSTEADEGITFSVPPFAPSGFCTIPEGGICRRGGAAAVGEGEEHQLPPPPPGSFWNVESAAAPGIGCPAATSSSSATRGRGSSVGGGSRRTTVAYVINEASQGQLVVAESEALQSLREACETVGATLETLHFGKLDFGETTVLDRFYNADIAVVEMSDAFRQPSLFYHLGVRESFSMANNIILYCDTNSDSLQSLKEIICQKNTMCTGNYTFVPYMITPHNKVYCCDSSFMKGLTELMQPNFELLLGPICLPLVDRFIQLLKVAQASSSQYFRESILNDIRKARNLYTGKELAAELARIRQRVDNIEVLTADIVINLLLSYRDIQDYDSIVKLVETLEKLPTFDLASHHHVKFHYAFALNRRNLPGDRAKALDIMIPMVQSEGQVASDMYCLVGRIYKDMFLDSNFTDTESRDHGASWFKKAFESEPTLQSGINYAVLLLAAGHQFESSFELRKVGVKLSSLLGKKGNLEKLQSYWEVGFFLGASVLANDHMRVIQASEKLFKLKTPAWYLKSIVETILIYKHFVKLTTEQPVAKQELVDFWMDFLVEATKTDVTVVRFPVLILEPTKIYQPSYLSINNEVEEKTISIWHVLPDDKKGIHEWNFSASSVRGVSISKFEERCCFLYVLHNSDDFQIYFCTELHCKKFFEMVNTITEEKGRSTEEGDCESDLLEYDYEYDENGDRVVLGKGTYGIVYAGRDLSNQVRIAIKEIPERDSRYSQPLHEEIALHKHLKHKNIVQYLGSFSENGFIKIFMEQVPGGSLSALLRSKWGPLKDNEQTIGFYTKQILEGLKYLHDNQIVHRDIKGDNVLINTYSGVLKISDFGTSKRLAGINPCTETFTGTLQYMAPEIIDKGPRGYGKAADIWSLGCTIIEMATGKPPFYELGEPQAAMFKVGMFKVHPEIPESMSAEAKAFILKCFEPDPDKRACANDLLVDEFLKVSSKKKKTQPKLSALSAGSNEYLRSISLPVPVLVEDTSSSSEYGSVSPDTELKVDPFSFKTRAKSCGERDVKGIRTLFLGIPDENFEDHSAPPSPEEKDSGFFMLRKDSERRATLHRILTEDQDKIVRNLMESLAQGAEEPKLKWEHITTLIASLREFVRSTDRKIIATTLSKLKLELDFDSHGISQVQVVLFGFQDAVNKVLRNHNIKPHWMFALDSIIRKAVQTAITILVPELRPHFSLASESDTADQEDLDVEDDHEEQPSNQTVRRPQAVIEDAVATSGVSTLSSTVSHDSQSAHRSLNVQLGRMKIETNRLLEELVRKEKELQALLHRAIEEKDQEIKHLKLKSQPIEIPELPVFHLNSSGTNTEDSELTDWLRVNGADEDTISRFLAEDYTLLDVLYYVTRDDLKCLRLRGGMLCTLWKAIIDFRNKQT
T2 sequence (P48730 whole entry): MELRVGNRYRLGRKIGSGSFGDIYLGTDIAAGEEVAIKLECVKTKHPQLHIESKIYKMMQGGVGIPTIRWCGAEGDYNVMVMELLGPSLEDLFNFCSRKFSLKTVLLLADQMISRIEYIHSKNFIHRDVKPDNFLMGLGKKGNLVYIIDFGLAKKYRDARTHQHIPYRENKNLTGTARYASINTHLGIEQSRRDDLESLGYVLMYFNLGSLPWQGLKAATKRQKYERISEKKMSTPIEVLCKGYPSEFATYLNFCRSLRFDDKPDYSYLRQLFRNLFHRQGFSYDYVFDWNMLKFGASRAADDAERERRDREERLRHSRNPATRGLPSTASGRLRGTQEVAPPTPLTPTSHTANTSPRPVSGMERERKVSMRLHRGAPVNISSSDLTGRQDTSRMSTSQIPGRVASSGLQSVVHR
T1 sequence (Q16539 whole entry): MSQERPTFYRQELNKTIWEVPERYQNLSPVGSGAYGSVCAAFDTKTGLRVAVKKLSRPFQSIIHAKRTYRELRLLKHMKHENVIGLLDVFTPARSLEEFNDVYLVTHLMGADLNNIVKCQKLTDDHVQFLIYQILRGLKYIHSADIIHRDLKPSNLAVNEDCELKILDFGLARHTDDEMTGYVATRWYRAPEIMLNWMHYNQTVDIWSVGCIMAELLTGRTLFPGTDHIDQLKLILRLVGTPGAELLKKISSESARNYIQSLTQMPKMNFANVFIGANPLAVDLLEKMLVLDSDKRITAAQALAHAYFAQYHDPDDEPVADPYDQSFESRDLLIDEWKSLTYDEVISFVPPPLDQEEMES
T12 sequence (P35916 25-1363): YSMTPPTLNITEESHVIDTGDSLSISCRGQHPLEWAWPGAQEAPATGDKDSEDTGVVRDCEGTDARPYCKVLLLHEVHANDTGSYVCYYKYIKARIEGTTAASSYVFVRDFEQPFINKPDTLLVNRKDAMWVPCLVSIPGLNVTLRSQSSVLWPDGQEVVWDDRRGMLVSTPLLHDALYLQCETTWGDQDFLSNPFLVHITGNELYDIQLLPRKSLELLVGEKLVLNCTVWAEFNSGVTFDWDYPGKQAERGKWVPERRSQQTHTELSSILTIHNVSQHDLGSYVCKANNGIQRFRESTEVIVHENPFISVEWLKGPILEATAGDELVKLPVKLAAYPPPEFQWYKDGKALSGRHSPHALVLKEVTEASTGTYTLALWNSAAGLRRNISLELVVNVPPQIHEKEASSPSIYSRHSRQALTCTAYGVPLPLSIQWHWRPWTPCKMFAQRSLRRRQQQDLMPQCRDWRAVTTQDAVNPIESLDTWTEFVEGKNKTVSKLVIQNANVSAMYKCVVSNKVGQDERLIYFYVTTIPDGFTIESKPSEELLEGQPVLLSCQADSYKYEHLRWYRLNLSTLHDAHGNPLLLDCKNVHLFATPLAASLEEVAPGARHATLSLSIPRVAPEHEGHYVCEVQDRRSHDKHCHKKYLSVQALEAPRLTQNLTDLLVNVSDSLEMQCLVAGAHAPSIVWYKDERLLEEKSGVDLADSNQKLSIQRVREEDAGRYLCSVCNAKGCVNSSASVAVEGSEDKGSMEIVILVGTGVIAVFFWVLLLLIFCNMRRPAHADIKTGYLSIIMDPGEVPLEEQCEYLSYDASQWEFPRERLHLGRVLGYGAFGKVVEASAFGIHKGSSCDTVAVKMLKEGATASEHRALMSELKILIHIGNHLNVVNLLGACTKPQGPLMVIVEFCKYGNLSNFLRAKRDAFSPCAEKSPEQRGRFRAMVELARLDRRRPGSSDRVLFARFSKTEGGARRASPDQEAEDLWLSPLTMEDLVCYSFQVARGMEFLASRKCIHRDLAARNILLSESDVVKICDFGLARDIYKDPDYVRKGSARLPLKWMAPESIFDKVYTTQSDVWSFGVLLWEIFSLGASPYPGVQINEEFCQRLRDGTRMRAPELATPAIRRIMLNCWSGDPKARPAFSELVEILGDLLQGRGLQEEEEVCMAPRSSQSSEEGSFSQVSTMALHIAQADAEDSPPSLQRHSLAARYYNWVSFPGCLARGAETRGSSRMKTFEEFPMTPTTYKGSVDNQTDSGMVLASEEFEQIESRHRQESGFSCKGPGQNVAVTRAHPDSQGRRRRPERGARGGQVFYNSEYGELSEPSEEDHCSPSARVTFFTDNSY
T14 sequence (O60285 whole entry): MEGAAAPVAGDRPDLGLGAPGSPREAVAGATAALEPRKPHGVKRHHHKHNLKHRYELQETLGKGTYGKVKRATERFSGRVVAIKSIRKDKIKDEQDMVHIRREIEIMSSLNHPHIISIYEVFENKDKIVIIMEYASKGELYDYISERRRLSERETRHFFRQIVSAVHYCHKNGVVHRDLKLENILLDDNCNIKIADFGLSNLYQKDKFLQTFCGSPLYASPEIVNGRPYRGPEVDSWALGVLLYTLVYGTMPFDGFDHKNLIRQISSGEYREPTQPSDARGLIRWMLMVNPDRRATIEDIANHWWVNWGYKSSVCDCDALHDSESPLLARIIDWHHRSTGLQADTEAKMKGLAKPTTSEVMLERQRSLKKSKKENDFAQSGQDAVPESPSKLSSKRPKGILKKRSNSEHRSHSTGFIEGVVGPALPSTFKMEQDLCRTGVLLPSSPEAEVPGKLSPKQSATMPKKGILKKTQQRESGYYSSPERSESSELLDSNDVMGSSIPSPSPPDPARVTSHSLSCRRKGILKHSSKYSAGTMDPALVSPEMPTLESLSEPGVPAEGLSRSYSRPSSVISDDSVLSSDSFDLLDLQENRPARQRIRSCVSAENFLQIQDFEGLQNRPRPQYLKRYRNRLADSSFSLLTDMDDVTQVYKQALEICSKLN
T5 sequence (P31751 whole entry): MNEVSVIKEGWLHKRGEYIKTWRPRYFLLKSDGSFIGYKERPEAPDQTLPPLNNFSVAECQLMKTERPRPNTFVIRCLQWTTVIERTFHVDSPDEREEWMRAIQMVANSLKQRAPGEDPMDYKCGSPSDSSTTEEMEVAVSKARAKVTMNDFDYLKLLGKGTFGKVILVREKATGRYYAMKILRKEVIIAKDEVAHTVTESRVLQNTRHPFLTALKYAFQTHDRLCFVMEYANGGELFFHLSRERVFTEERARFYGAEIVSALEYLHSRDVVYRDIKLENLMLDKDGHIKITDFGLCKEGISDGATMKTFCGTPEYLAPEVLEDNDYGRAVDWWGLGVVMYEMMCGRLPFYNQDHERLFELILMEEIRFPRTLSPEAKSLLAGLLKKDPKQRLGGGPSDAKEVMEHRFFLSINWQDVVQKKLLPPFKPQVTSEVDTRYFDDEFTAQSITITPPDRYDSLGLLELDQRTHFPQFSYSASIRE

Q: With Cc1cc(/C=C/C#N)cc(C)c1Nc1ccnc(Nc2ccc(C#N)cc2)n1 [rilpivirine, (E)-4-((4-((4-(2-cyanoethenyl)-2,6-dimethylphenyl)amino)pyrimidin-2-yl)amino)benzonitrile] as the compound, how does the clonogenic growth (HL-60 cells [1]) read?
A: significantly decreased

Q: And the clonogenic growth (NB4 cells)?
A: significantly decreased

Q: What about the “caspase 3/7 activation vs untreated control” value [2] of the same compound?
A: significantly increased

Q: What about the remaining activity at 1 µM (SAPK2a(h)) of the same compound?
A: 84%

Q: What about the remaining activity at 1 µM (CK1δ(h)) of the same compound?
A: 99%

Q: What about the remaining activity at 1 µM (SRPK1(h)) of the same compound?
A: 84%

Q: What about the remaining activity at 1 µM (MKK4(m)) of the same compound?
A: 84%

Q: And the remaining activity at 1 µM (PKBβ(h))?
A: 90%

Q: And the remaining activity at 1 µM (FGFR2(h))?
A: 95%

Q: And the remaining activity at 1 µM (Pim-3(h))?
A: 89%

Q: What about the remaining activity at 1 µM (GRK1(h)) of the same compound?
A: 103%

Q: And the remaining activity at 1 µM (DAPK1(h))?
A: 83%

Q: And the remaining activity at 1 µM (ASK1(h))?
A: 92%

Q: What about the remaining activity at 1 µM (TSSK3(h)) of the same compound?
A: 95%

Q: And the remaining activity at 1 µM (Flt4(h))?
A: 101%

Q: And the remaining activity at 1 µM (EGFR(T790M,L858R)(h))?
A: 88%

Q: What about the remaining activity at 1 µM (ARK5(h)) of the same compound?
A: 82%

Q: And the GI50 (HL-60 cells [3]; HL-60, 24 h)?
A: 9.16 ± 1.05 µM

Q: And the GI50 (HL-60 cells [3]; HL-60, 48 h)?
A: 6.26 ± 0.15 µM

Q: And the GI50 (HL-60 cells [3]; HL-60, 72 h)?
A: 4.12 ± 0.18 µM
